Counter-ions that a name gives are not always drawn.
Legend:
[1] = system: citrated human blood; experiment: in vitro haemolysis test (solution mixed 1:1 with citrated human blood, 37° C.); type: cell-based
From the text: In the following description the term “active substance”, on its own or in combination, always denotes 4-(4-(2-pyrrolylcarbonyl)-1-piperazinyl)-3-trifluoromethyl-benzoylguanidine hydrochloride, unless otherwise stated. Both a monohydrate and a hemihydrate of 4-(4-(2-pyrrolylcarbonyl)-1-piperazinyl)-3-trifluoromethyl-benzoylguanidine hydrochloride may be obtained. For all the experiments the hemihydrate was used. The quantitative data used hereinafter always relate to the free base; i.e. the quantities specified correspond to the theoretical amount of free base, whereas in reality a correspondingly larger amount of hemihydrate was added. In each case glucose was used to render the solution isotonic. The isotonic nature of the solutions was checked in each case by lowering the freezing point. In in-vitro haemolysis tests in each case the solution to be tested was mixed with citrated human blood in the ratio 1:1 and kept at 37° C. during the incubation period. […]

[2] = local tolerance trial on rats (30 minutes' infusion into the caudal vein); type: in vivo
[3] = local tolerance study on rabbits (bolus and 8 minutes infusion); type: in vivo
[4] = local tolerance in dogs (bolus and infusion); type: in vivo
Procedure: In the second step the appropriate ratio of HPβCD to active substance was determined from the local tolerance in dogs.

[5] = local tolerance after intravenous administration; type: in vivo
Procedure: When they are administered parenterally some local intolerances occasionally arise.

[6] = stability of the active substance (hydrolysis); type: physicochemical; details: only anhydrous formulations are stable
From the text: Therefore, lyophilisates have been developed, which have to be reconstituted before use.

N=C(N)NC(=O)c1ccc(N2CCN(C(=O)c3ccc[nH]3)CC2)c(C(F)(F)F)c1 [active substance, 4-(4-(2-pyrrolylcarbonyl)-1-piperazinyl)-3-trifluoromethyl-benzoylguanidine hydrochloride]
degree of haemolysis ([1]; 10 mg/ml active substance, 100 mg/ml PVP 17 PF, aqueous isotonic solution, incubation 45 minutes): 17% | haemolysis observed ([1]; 1% aqueous isotonic active substance solution containing 10% HPβCD, incubation 45 minutes): no haemolysis | degree of haemolysis (%) ([1]; active substance 0.5 mg/ml, aqueous isotonic solution, no tolerance measures, incubation two hours): 0% | degree of haemolysis (%) ([1]; active substance 1.0 mg/ml, aqueous isotonic solution, no tolerance measures, incubation two hours): 1% | degree of haemolysis (%) ([1]; active substance 1.5 mg/ml, aqueous isotonic solution, no tolerance measures, incubation two hours): 4% | degree of haemolysis (%) ([1]; active substance 1.5 mg/ml, no tolerance measures, incubation 45 minutes): 0% | degree of haemolysis (%) ([1]; active substance 10 mg/ml, HPβCD 0 mg/ml, incubation 45 minutes): 100% | degree of haemolysis (%) ([1]; active substance 10 mg/ml, HPβCD 100 mg/ml, incubation 45 minutes): 0% | degree of haemolysis (%) ([1]; active substance 10 mg/ml, Poloxamer 188 0 mg/ml, incubation 45 minutes): 99% | degree of haemolysis (%) ([1]; active substance 10 mg/ml, Poloxamer 188 100 mg/ml, incubation 45 minutes): 4% | degree of haemolysis (%) ([1]; active substance 10 mg/ml, Poloxamer 188 200 mg/ml, incubation 45 minutes): 0% | degree of haemolysis (%) ([1]; active substance 10.0 mg/ml, no tolerance measures, incubation 45 minutes): 100% | degree of haemolysis (%) ([1]; active substance 10 mg/ml, phospholipid 60 mg/ml, sodium glycocholate 32 mg/ml): 2% | degree of haemolysis (%) ([1]; active substance 10 mg/ml, phospholipid 60 mg/ml, sodium glycocholate 36 mg/ml): 7% | degree of haemolysis (%) ([1]; active substance 10 mg/ml, phospholipid 75 mg/ml, sodium cholate 50 mg/ml, incubation 45 minutes): 7% | degree of haemolysis (%) ([1]; active substance 10 mg/ml, phospholipid 150 mg/ml, sodium cholate 100 mg/ml, incubation 45 minutes): 0% | haemolytic activity ([1]; ratio of HPβCD to active substance 6.67:1, active substance concentration 9 mg/ml): not haemolytic | local tolerance ([2]; 0.75 mg/ml, no tolerance measures, 30 minutes' infusion into the caudal vein): poorly tolerated | local tolerance ([2]; 1.5 mg/ml with 100 mg/ml Poloxamer 188, 30 minutes infusion into the caudal vein, compared with 1.5 mg/ml without excipient): better tolerated | local tolerance ([3]; 1% active substance solutions containing 10% HPβCD): locally well-tolerated | local tolerance ([3]; 1% active substance solutions with phospholipid and sodium cholate (mixed micelles)): locally well-tolerated | local tolerance ([4]; weight ratio HPβCD to active substance 10:1, bolus, active substance concentration 10 mg/ml): suitable | local tolerance ([4]; weight ratio HPβCD to active substance 10:1, infusion, active substance concentration between 1.5 mg/ml and 3 mg/ml): suitable | local tolerance [5]: locally poorly tolerated | stability [6]: prone to hydrolysis

From patent publication US20060035862A1, “Tolerance of 4-(4-(2-pyrrolycarbonyl)-1-piperazinyl)-3-trifluoromethyl-benzoylguanidine in intravenous administration” (Boehringer Ingelheim Pharma KG, priority 2001, published 2006)
